{
  "source": "paper PMC9959244",
  "about": "“Revisiting the Solubility–Permeability Relationship with Hydrophobic Drug Umifenovir in Pluronic Solutions: Impact of pH and Co-Solvent” (Pharmaceutics, 2023)",
  "origin": "cited, not measured here",
  "key": {"[1]": {"design": "method as in doi:10.1016/S1773-2247(07)50022-5", "settings": "cited from earlier work"}, "[2]": {"design": "method as in PMID 33926020", "settings": "kneaded ternary complex with β-cyclodextrin and 1% poloxamer 188; cited from earlier work"}},
  "note": "Like-named read-outs stand apart in the source and are kept apart here.",
  "data": [
    {"smiles": "CCOC(=O)c1c(CSc2ccccc2)n(C)c2cc(Br)c(O)c(CN(C)C)c12.Cl", "note": "[arbidol hydrochloride]", "values": [
      {"measurement": "Increase of dissolution at 3 min vs pure compound", "setting": "[1]; solid dispersion with PEG 4000", "result": 14.0, "unit": "fold"},
      {"measurement": "Percent concentration after 3 min of dissolution", "setting": "[1]; solid dispersion with PEG 4000", "result": 53.6, "unit": "%"},
      {"measurement": "Increase of dissolution at 3 min vs pure compound", "setting": "[1]; solid dispersion with PEG 8000", "result": 15.4, "unit": "fold"},
      {"measurement": "Percent concentration after 3 min of dissolution", "setting": "[1]; solid dispersion with PEG 8000", "result": 59.0, "unit": "%"},
      {"measurement": "Solubility increase", "setting": "[2]", "result": 13.1, "unit": "fold"}
    ]}
  ]
}
